According to patent publication US20170037028A1 (BAYER PHARMA AKTIENGESELLSCHAFT, priority 2013, published 2017):

biological target: T1, GLUT1 (Homo sapiens, UniProt P11166); assay: Indirect measurement of GLUT1 activity by quantification of intracellular ATP levels (glucose induced ATP increase); assay type: cell-based; design: endogenous in cells; host or cells: DLD1 or CHO-K1; settings: read-out: IC50 regarding glucose induced ATP increase (GLUT1 inhibition)
T1 sequence (P11166 1-492): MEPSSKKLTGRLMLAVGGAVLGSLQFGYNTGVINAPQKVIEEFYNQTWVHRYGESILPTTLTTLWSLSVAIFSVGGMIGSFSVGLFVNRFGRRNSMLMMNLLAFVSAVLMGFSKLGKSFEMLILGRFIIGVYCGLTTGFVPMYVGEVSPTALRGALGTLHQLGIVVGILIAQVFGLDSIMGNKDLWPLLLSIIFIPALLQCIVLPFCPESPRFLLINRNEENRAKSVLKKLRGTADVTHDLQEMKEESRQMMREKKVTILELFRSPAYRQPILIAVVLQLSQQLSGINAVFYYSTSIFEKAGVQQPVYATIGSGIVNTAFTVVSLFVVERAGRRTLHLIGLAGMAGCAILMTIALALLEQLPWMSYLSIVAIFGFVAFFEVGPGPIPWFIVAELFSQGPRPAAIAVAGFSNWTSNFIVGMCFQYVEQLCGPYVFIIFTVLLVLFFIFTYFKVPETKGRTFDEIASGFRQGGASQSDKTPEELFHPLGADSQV
Excerpt: Indirect Measurement of GLUT1 and GLUT2 Activity by Quantification of Intracellular ATP Levels
It is well known that a combination of small-molecule inhibitors of mitochondrial electron transport chain and glucose catabolism synergistically suppress ATP production and impair cellular viability (Ulanovskaya et al., 2008, 2011; Liu, et al. 2001). We therefore used DLD1 or CHO-K1 cells in combination with an oxidative phosphorylation inhibitor to identify GLUT1 and GLUT2 inhibitors. Cell lines were maintained in DMEM medium supplemented with 10% FCS and 1% Penicillin-Streptomycin solution and 2% Glutamax. The cells were treated with trypsin and seeded into 384 plates at a density of 4000 cells/well. The cells were then cultured overnight in glucose free media containing 1% FCS to reduce intracellular ATP levels. […] The CellTiter-Glo® Luminescent Cell Viability Assay from Promega was then used to measure ATP Levels.

Row | IC50 [nM] | SMILES
1 | 1870 | Cc1nn(Cc2ccc(C(=O)NCC3CCCCC3)cc2)c(C)c1NC(=O)c1cc(C(F)(F)F)nc2ccc(Br)cc12 [Example 1251]
2 | 11100 | COc1cc(C(=O)Nc2c(C)nn(Cc3cc(F)ccc3F)c2C)c2ccccc2n1 [Example 1304]
3 | 24 | Cc1c(NC(=O)c2cc(C(N)=O)nc3cc(F)c(Cl)cc23)c(C(F)(F)F)nn1Cc1ncco1 [Example 1547]
4 | 312 | Cc1nn(Cc2ccc(CC(=O)Nc3ccccc3)cc2)c(C)c1NC(=O)c1cc(C(F)(F)F)nc2ccc(Br)cc12 [Example 155, 6-bromo-N-(3,5-dimethyl-1-{4-[2-oxo-2-(phenylamino)ethyl]benzyl}-1H-pyrazol-4-yl)-2-(trifluoromethyl)quinoline-4-carboxamide]
5 | 5.1 | Cc1c(NC(=O)c2cc(C(N)=O)nc3cc(F)c(Cl)cc23)c(C#N)nn1Cc1ccc(F)cc1 [Example 307, 6-chloro-N^4-[3-cyano-1-(4-fluorobenzyl)-5-methyl-1H-pyrazol-4-yl]-7-fluoroquinoline-2,4-dicarboxamide]
6 | 30.4 | Cc1nn(Cc2ccc(F)c(F)c2)c(C)c1NC(=O)c1cc(C(F)(F)F)nc2ccc(Cl)cc12 [Example 165, 6-chloro-N-[1-(3,4-difluorobenzyl)-3,5-dimethyl-1H-pyrazol-4-yl]-2-(trifluoromethyl)quinoline-4-carboxamide]
7 | 1.5 | Cc1nn(Cc2ccc(F)cc2)c(C)c1NC(=O)c1cc(C(N)=O)nc2cc(F)c(F)cc12 [Example 120, 6,7-difluoro-N^4-[1-(4-fluorobenzyl)-3,5-dimethyl-1H-pyrazol-4-yl]quinoline-2,4-dicarboxamide]
8 | 55.4 | Cc1nn(Cc2ccc(C(=O)NCc3cccs3)cc2)c(C)c1NC(=O)c1cc(C(F)(F)F)nc2ccc(Br)cc12 [Example 1110]
9 | 2.6 | Cc1ccc2nc(C(N)=O)cc(C(=O)Nc3c(C)nn(Cc4ccc(C#N)cc4)c3C)c2c1 [Example 264, N^4-[1-(4-cyanobenzyl)-3,5-dimethyl-1H-pyrazol-4-yl]-6-methylquinoline-2,4-dicarboxamide]
10 | 135 | Cc1nn(Cc2ccccn2)c(C)c1NC(=O)c1cc(C(F)(F)F)nc2c(Cl)cc(Cl)cc12 [Example 66, 6,8-dichloro-N-[3,5-dimethyl-1-(pyridin-2-ylmethyl)-1H-pyrazol-4-yl]-2-(trifluoromethyl)quinoline-4-carboxamide]
11 | 11.4 | Cc1nn(Cc2cccc(OC(F)(F)F)c2)c(C)c1NC(=O)c1cc(C(N)=O)nc2cc(F)c(Cl)cc12 [Example 1583]
12 | 177 | COc1ccc2nccc(C(=O)Nc3c(C)nn(Cc4ccc(F)cc4)c3C)c2c1 [Example 192, N-[1-(4-fluorobenzyl)-3,5-dimethyl-1H-pyrazol-4-yl]-6-methoxyquinoline-4-carboxamide]
13 | 50 | COc1cc(C(=O)Nc2c(C)nn(Cc3ccccc3C)c2C)c2ccccc2n1 [Example 51, N-[3,5-dimethyl-1-(2-methylbenzyl)-1H-pyrazol-4-yl]-2-methoxyquinoline-4-carboxamide]
14 | 1 | Cc1c(NC(=O)c2cc(C(N)=O)nc3cc(F)ccc23)c(C(F)(F)F)nn1Cc1ccc(CC#N)cc1 [Example 403, N^4-{1-[4-(cyanomethyl)benzyl]-5-methyl-3-(trifluoromethyl)-1H-pyrazol-4-yl}-7-fluoroquinoline-2,4-dicarboxamide]
15 | 181 | Cc1nn(Cc2ccccc2F)c(C)c1NC(=O)c1cc(C(F)(F)F)nc2ccc(Br)cc12 [Example 74, 6-bromo-N-[1-(2-fluorobenzyl)-3,5-dimethyl-1H-pyrazol-4-yl]-2-(trifluoromethyl)quinoline-4-carboxamide]
16 | 354 | Cc1nn(Cc2ccc(CC(=O)N(C)C)cc2)c(C)c1NC(=O)c1cc(C(F)(F)F)nc2ccc(Br)cc12 [Example 156, 6-bromo-N-(1-{4-[2-(dimethylamino)-2-oxoethyl]benzyl}-3,5-dimethyl-1H-pyrazol-4-yl)-2-(trifluoromethyl)quinoline-4-carboxamide]
17 | 11100 | Cc1ccc2nc(C)cc(C(=O)Nc3c(C)nn(Cc4cc(F)cc(F)c4)c3C)c2c1 [Example 1296]
18 | 27.4 | Cc1c(NC(=O)c2cc(C(N)=O)nc3ccccc23)c(C(F)(F)F)nn1Cc1ccc(S(C)(=O)=O)cc1 [Example 1432]
19 | 3930 | Cc1nn(CCN2CCN(C)CC2)c(C)c1NC(=O)c1cc(C(F)(F)F)nc2ccc(Br)cc12 [Example 1279]
20 | 6250 | COc1cc(C(=O)Nc2c(C)nn(Cc3cccc(C#N)c3)c2C)c2ccccc2n1 [Example 1286]
21 | 924 | Cc1ccc2nc(C)cc(C(=O)Nc3c(C)nn(C/C=C/c4ccccc4)c3C)c2c1 [Example 1226]
22 | 116 | Cc1c(NC(=O)c2cc(C(N)=O)nc3cc(F)c(Cl)cc23)c(C(F)(F)F)nn1Cc1cc(C(C)C)no1 [Example 1554]

Row | IC50 [nM] | SMILES
23 | 41.5 | COc1ccccc1Cn1nc(C(F)(F)F)c(NC(=O)c2cc(C(N)=O)nc3cc(F)c(Cl)cc23)c1C [Example 1491]
24 | 11.1 | Cc1nn(Cc2ncccc2C#N)c(C)c1NC(=O)c1cc(C(N)=O)nc2cc(F)ccc12 [Example 1409]
25 | 1930 | Cc1c(NC(=O)c2cc(C(N)=O)nc3ccc(S(C)(=O)=O)cc23)c(C(F)(F)F)nn1Cc1ccc(C#N)cc1 [Example 1389]
26 | 242 | Cc1nn(CC2CCN(C(=O)OC(C)(C)C)CC2)c(C)c1NC(=O)c1cc(C(N)=O)nc2ccccc12 [Example 1184]
27 | 117 | Cc1nn(Cc2ccc(C(=O)N3CC(C#N)C3)cc2)c(C)c1NC(=O)c1cc(C(F)(F)F)nc2ccc(Br)cc12 [Example 1147]
28 | 185 | CCc1noc(Cn2nc(C(F)(F)F)c(NC(=O)c3cc(C(N)=O)nc4cc(F)ccc34)c2C)n1 [Example 1537]
29 | 1.9 | Cc1c(NC(=O)c2cc(C(N)=O)nc3cc(F)c(Cl)cc23)c(C(C)C)nn1Cc1ccc(C#N)cc1 [Example 324, 6-chloro-N^4-[1-(4-cyanobenzyl)-3-isopropyl-5-methyl-1H-pyrazol-4-yl]-7-fluoroquinoline-2,4-dicarboxamide]
30 | 1.9 | Cc1nn(Cc2ccc(C(=O)NC[C@@H](C)O)cc2)c(C)c1NC(=O)c1cc(C(F)(F)F)nc2ccc(Br)cc12 [Example 1019]
31 | 161 | Cc1nn(Cc2ccc(C(=O)N(C)CCC#N)cc2)c(C)c1NC(=O)c1cc(C(F)(F)F)nc2ccc(Br)cc12 [Example 1160]
32 | 6.8 | Cc1nn(Cc2ccc(C#N)cc2F)c(C)c1NC(=O)c1cc(C(N)=O)nc2ccc(Br)cc12 [Example 299, 6-bromo-N^4-[1-(4-cyano-2-fluorobenzyl)-3,5-dimethyl-1H-pyrazol-4-yl]quinoline-2,4-dicarboxamide]
33 | 34.4 | Cc1nn(Cc2cccc(S(C)(=O)=O)c2)c(C)c1NC(=O)c1cc(C(N)=O)nc2cc(F)c(Cl)cc12 [Example 1643]
34 | 390 | Cc1nn(Cc2ccc(C#N)cc2)c(C)c1NC(=O)c1cc(C(F)(F)F)nc2ccc(-c3c(C)noc3C)cc12 [Example 1198]
35 | 2050 | Cc1nn(Cc2ccc(F)cc2)c(C)c1NC(=O)c1cc(C(F)(F)F)nc2ccc(NS(C)(=O)=O)cc12 [Example 1257]
36 | 144 | Cc1c(NC(=O)c2cc(C(N)=O)nc3ccccc23)c(C(F)(F)F)nn1CCc1ccc(F)cc1 [Example 1371]
37 | 126 | Cc1ccc2nc(C)cc(C(=O)Nc3c(C)nn(Cc4ccc(F)c(Cl)c4)c3C)c2c1 [Example 186, N-[1-(3-chloro-4-fluorobenzyl)-3,5-dimethyl-1H-pyrazol-4-yl]-2,6-dimethylquinoline-4-carboxamide]
38 | 32.1 | Cc1ccc2nc(C)cc(C(=O)Nc3c(C)nn(Cc4ccc(C#N)cc4)c3C)c2c1 [Example 44, N-[1-(4-cyanobenzyl)-3,5-dimethyl-1H-pyrazol-4-yl]-2,6-dimethylquinoline-4-carboxamide]
39 | 2.3 | COC(=O)c1ccc(Cn2nc(C(F)(F)F)c(NC(=O)c3cc(C(N)=O)nc4cc(F)ccc34)c2C)cc1 [Example 367, methyl 4-{[4-{[(2-carbamoyl-7-fluoroquinolin-4-yl)carbonyl]amino}-5-methyl-3-(trifluoromethyl)-1H-pyrazol-1-yl]methyl}benzoate]
40 | 67.4 | Cc1c(NC(=O)c2cc(C(N)=O)nc3cc(F)ccc23)c(C(F)(F)F)nn1Cc1ccc(C2CCC2)cc1 [Example 1616]
41 | 833 | Cc1ccc2nc(C)cc(C(=O)Nc3c(C)nn(Cc4ccccc4C#N)c3C)c2c1 [Example 114, N-[1-(2-cyanobenzyl)-3,5-dimethyl-1H-pyrazol-4-yl]-2,6-dimethylquinoline-4-carboxamide]
42 | 0.8 | COc1cc(Cn2nc(C(F)(F)F)c(NC(=O)c3cc(C(N)=O)nc4cc(F)c(Cl)cc34)c2C)ccc1C#N [Example 1666]
43 | 5.8 | Cc1nn(C(C)c2ccccc2)c(C)c1NC(=O)c1cc(C(N)=O)nc2ccccc12 (racemic) [Example 1362]
